# Entries after “also recorded” stand apart in the source; their conditions may differ. Read-outs that look alike come from different tables or passages of the source.
# Legend:
# Shc = experiment: Tyrosine phosphorylation of Shc in stimulated PC12 cells (anti-Shc immunoprecipitation, anti-phosphotyrosine immunoblot); type: cell-based, rat; conditions: for effect on carbachol induced tyrosine phosphorylation of Shc: antagonist
# Method: Tyrosine phosphorylation of Shc in response to bradykinin, carbachol, PMA and other stimuli was also measured. Quiescent PC12 cells were stimulated for 5 min at 37° C. with bradykinin (1AM), carbachol (1 mM), KC1 (75 mM), PMA (1.6pM), NGF (100 ng/ml), or left unstimulated (−). The cells were also stimulated with carbachol (1 mM) or potassium chloride (75 mM) in the presence of 3 mM EGTA. Stimulations with DMPP (100 μM) or muscarine (1 mM) were preformed under the same conditions. […] The Shc proteins were immunoprecipitated with anti-Shc antibodies, the immunoprecipitates were resolved by SDS-PAGE (8%1, transferred to nitrocellulose and immunoblotted with anti-phosphotyrosine antibodies.
# PYK2 [1] = experiment: Tyrosine phosphorylation of PYK2 in stimulated PC12 cells (anti-PYK2 immunoprecipitation, anti-phosphotyrosine immunoblot); type: cell-based, rat
# Kv1.2 channel [2] = experiment: Kv1.2 currents in microinjected Xenopus oocytes, two microelectrode voltage-clamp; type: cell-based, Xenopus laevis; conditions: for inhibition of outward current: 8 min after addition of 100 nM PMA
# Method: In vitro capped RNA transcripts of Kv1.2, PYK2 and PKN were synthesized from linearized plasmids DNA templates utilizing the mMESSAGE MMACHINE kit (Ambion), following the supplier's protocols. The products of the transcription reaction (cRNAs) were diluted in RNAse-free water and stored at −70° C. Expression of the RNAs was done by injection of 50nl of RNA into defolliculated stage V and VI oocytes from Xenopus laevis (Iverson et al., J. Neurosc. 10, 2903-2916, 1990). The injected oocytes were incubated for 2-3 days at 20° C. in L15 solution (1:2 dilution of Gibco's Leibovitz L15 medum in H20, with 50U/ml nystatin, 0.1 mg/ml gentamycin, 30 mM HEPES buffer, pH 7.3-7.4, filtered through a […] membrane). Electrophysiological Recording and analysis. Ionic currents were recorded with a two microelectrode voltage-clamp as described (Iverson et al., suDra). The current were low-pass filtered KHz using an 8-pole Bessel filter and stored in a 80286 microcomputer using the pclamp acquisition system (Axon Instruments). The data was analyzed with the clamp fit pro-rams of the pCIamp system (Axon Instruments). All recording were performed at room temperature ([…]). The recording chamber was continually perfused with recording solution. To avoid contamination of the oocyte by Ca+^2-activated Cl^− currents low Cl^− recording solution was used (96 mM Na+, glutamate, 2 mM K^+ glutamate, 0.5 mM CaCl2, 5 mM MgCl2, 5 mM HEPES buffer). The K^+ currents were elicited in depolarizinc, steps from −100 to +40 mv in 10 mV increments every 15 seconds.
# Kv1.2 currents from oocytes microinjected with either Kv1.2 mRNA, Kv1.2 and PYK2 mRNAs, or Kv1.2 and a kinase negative mutant of PYK2 mRNAs (PKN). Currents were elicited in response to depolarizing steps from −100 to +30 mV increments from a holding potential of −110 mV. Representative traces of Kv1.2 channels before and after bath application of 100 nM PMA at the annotated time (8 and 20 minutes) in the same cell.
# Suppression of Kv1.2 currents in response to PMA is blocked by a kinase negative PYK2 mutant (PKN). […]
# Kv1.2 channel [3] = conditions: after 20 min incubation; as previously shown (Huang et al.); cited from earlier work
# PYK2 [4] = experiment: Tyrosine phosphorylation of PYK2 in transiently transfected 293 cells; type: cell-based, human; conditions: PMA 1.6 μM, calcium ionophore 6 μM
# Method: We examined the possibility whether PYK2 can tyrosine phosphorylate the Kv1.2 channel and regulate its function. In order to test this possibility, we expressed in 293 cells the Kv1.2 protein, Kv1.2 together with PYK2, and as a control Kv1.2 with a kinase negative PYK2 mutant (PKN) or with the protein tyrosine kinase Fak. The cells were grown for 24 hours in medium containing 0.2% serum and then stimulated with PMA (1.6 μM), calcium ionophore (6 μM), or left unstimulated.
# Embryonic human kidney 293 cells were transiently transfected with different combinations of mammalian expression vectors which direct the synthesis of Kv1.2-HA, PYK2, a kinase negative PYK2 (PKN) or the protein tyrosine kinase Fak. The cells were grown for 24 h in the presence of 0.2% serum and then either stimulated with PMA (1.6 μM, 10 min at 37° C.), the calcium ionophore A23187 (6 μM, 10 min at 37° C.) or left unstimulated (−).
# Tyrosine phosphorylation of each protein was analysed following immunoprecipitation and immunoblotting with anti-phosphotyrosine antibodies. The expression of each protein was determined by immunoblot analysis of total cell lysates from each transfection with anti-PYK2, anti-HA or anti-Fak antibodies.
# Kv1.2 potassium channel = experiment: Tyrosine phosphorylation of Kv1.2 potassium channel in 293 cells coexpressing PYK2; type: cell-based, human; conditions: 293 cells coexpressing Kv1.2-HA and PYK2; PMA 1.6 μM, calcium ionophore 6 μM
# PYK-2 = experiment: Tyrosine phosphorylation of PYK-2 in NIH3T3 cell lines that overexpress PYK-2; type: cell-based, mouse; conditions: NIH3T3 cells overexpressing PYK-2 / PYK-2-HA; TPA 6 μM, 15 min at 37° C.
# Method: Stable cell lines of NIH3T3 that overexpress PYK2 were established by contransfection of PYK2 subcloned into pLSV together with pSV2neo utilizing lipofectamine reagent (GIBCO BRL). Following transfection the cells were grown in Dulbecco's modified Eagle's medium containing 10% fetal bovine serum and 1 mg/ml G418. Transient transfections into 293 cells were performed by using the calcium phosphate technique (*).
# The PYK-2 cDNA cloned in PLSV was cotransfected with pSV2neo into PC12 cells and NIH3T3 in order to establish stable cell lines. G418 resistant colonies were screened by immunoprecipitating and immunoblotting.
# NIH3T3 cell lines were established that overexpress the PYK-2 and the PYK-2-HA protein. […] The level of phosphorylation is not so high.
# [5] = PC12 cells, agent alone, 37° C., b373: TPA 15 min, bradykinin 1 μM 1 min, A23187 2 μM 15 min, KCl 75 mM
compound,measurement,setting,value
"C[N+]1(C)CCN(c2ccccc2)CC1.[I-] [DMPP, 1,1-dimethyl-4-phenyl piperazinium iodide]",tyrosine phosphorylation of Shc in response to the agent,Shc,induced phosphorylation of Shc
"O=C(O)CN(CCOCCOCCN(CC(=O)O)CC(=O)O)CC(=O)O [EGTA, ethyleneglycol-bis (P-aminoethyl ether)-N,N,N′N′-teraacetic acid]",effect on agonist (carbachol) induced tyrosine phosphorylation of PYK2,"PYK2 [1]; PC12 cells, elimination of extracellular calcium, EGTA 3 mM",completely blocked agonist induced tyrosine phosphorylation of PYK2
"[Cl-].[K+] [KCl, potassium chloride]",tyrosine phosphorylation of PYK2 in response to the agent,PYK2 [1]; [5],induces rapid tyrosine phosphorylation of PYK2
"CCCCCCCCCCCCCC(=O)O[C@@H]1[C@@H](C)[C@@]2(O)[C@@H](C=C(CO)C[C@]3(O)C(=O)C(C)=C[C@@H]23)[C@@H]2C(C)(C)[C@]12OC(C)=O [PMA, phorbol 12-myristate 13-acetate]",inhibition of outward current,Kv1.2 channel [2]; oocytes coexpressing Kv1.2 and PYK2,95%
same,inhibition of outward current,Kv1.2 channel [2]; oocytes expressing Kv1.2 alone,25%
same,effect on Kv1.2 currents,Kv1.2 channel [2]; oocytes expressing Kv1.2,caused inhibition of Kv1.2 currents
same,effect of prolonged PMA treatment (down-regulation of PKC) on the agent-stimulated tyrosine phosphorylation of PYK2,PYK2 [1]; PC12 cells pretreated with 100 nM PMA for 12 h,completely abolished the effect of PMA
same,tyrosine phosphorylation of PYK2 in response to the agent,PYK2 [1]; [5],induced tyrosine phosphorylation of PYK2
same,tyrosine phosphorylation of PYK2 in response to the agent,"PYK2 [1]; PC12 cells, agent alone, 37° C., b373: TPA 15 min, bradykinin 1 μM 1 min, A23187 2 μM 15 min, KCl 75 mM, listed as TPA",undergoes tyrosine phosphorylation
same,inhibition of Kv1.2 currents,Kv1.2 channel [3],80-90%
same,tyrosine phosphorylation of PYK2 in response to the agent,PYK2 [4],induced tyrosine phosphorylation
same,tyrosine phosphorylation of Kv1.2,Kv1.2 potassium channel,enhanced
CN1[C@@H]2CC[C@H]1C[C@@H](OC(=O)C(CO)c1ccccc1)C2 (stereo partly drawn) [atropine],effect on carbachol induced tyrosine phosphorylation of Shc,Shc,had no effect
CNc1ccc2oc(C[C@H]3O[C@@]4(CC[C@H]3C)O[C@H]([C@H](C)C(=O)c3ccc[nH]3)[C@H](C)C[C@H]4C)nc2c1C(=O)O [calcium ionophore A23187],tyrosine phosphorylation of PYK2 in response to the agent,PYK2 [1]; [5],undergoes tyrosine phosphorylation; also recorded: PYK2 is phosphorylated on tyrosine residues
same,tyrosine phosphorylation of PYK2 in response to the agent,PYK2 [4],induced a weaker response
same,tyrosine phosphorylation of Kv1.2,Kv1.2 potassium channel,enhanced
C[N+](C)(C)CCOC(N)=O [carbachol],time after applying the agent at which PYK2 became phosphorylated on tyrosine residues,PYK2 [1]; PC12 cells,5 s
same,tyrosine phosphorylation of PYK2 in response to the agent,PYK2 [1]; [5],"induces strong, tyrosine phosphorylation of PYK2"
same,time of maximum tyrosine phosphorylation of Shc,"Shc; transient, followed by a rapid decline",one
CNC1(C)C2CCC(C2)C1(C)C (stereo not drawn) [mecamylamine],effect on carbachol induced tyrosine phosphorylation of Shc,Shc,blocked the effect of carbachol
C[C@@H]1O[C@H](C[N+](C)(C)C)C[C@H]1O [muscarine],tyrosine phosphorylation of Shc in response to the agent,Shc,had no effect
Cholera toxin,effect on the PYK-2 tyrosine phosphorylation response to TPA / bradykinin,PYK2 [1],gave higher signal in combination with TPA and bradykinin
same,tyrosine phosphorylation of PYK2 in response to the agent,PYK2 [1],didn't cause phosphorylation of PYK-2 alone
PDGF,tyrosine phosphorylation of PYK-2 in response to the agent,PYK-2,undergoes tyrosine phosphorylation
Pertusis toxin: toxin known to positively regulate G-coupled receptor signalling,tyrosine phosphorylation of PYK2 in response to the agent,PYK2 [1]; [5],didn't cause any response alone
same,effect on the PYK-2 tyrosine phosphorylation response to TPA / bradykinin,"PYK2 [1]; PC12 cells, agent in combination with TPA or bradykinin",induced the response of TPA and bradykinin
aFGF: growth factor stimulus,tyrosine phosphorylation of PYK-2 in response to the agent,PYK-2,undergoes tyrosine phosphorylation

# — patent US20040005648A1, “PYK2 related products and methods” (Sugen, Inc., priority 1994, published 2004)
